Measured values as given in PMC12731536, “Sc(III) Complexes of Pyclen Derivative Ligands as Probes for Hypoxia: Synthesis, Chemical Characterization, ^44Sc‐Radiolabeling, and Preclinical Assessment” (Chemistry (Weinheim an Der Bergstrasse, Germany), 2025).
Read-outs that look alike come from different tables or passages of the source.

Key:
[1] = I = 0.15 M NaCl, T = 25 °C; cited from earlier work
[2] = pH‐potentiometric determination of ligand protonation constants; assay type: physicochemical; details: I = 0.15 M NaCl, T = 25 °C
Method: The equilibrium study of the PC2AM^nBu ligand has been started by determining the protonation constants in 0.15 M and 1.00 M NaCl ionic strength. (As the stability of the Sc(III) complex was determined in 1.00 M ionic strength, we had to perform the pH‐potentiometric titration of ligands using 1.00 M ionic strengths also.) The results of pH‐potentiometric measurement are shown in Table 1, where the corresponding data for 3,9‐PC2A,^[ [42] ^] PCTA ^[ [46] ^] and PC2AM‐NI ligands determined under identical conditions are also presented. Knowledge of the protonation constants defined by Eqn. 1 and 2 are essential for the calculation of the stability constants of the Sc(III) complexes:
(1) PC2AM^nBu^2−+nH^+⇌Hn(PC2AM^nBu)^−2+n (2) βn=HnPC2AM^nBu^−2+n/PC2AM^nBu^2−H^+^n
The protonation constants of the ligands, as well as the concentrations of the ligand stock solutions, were determined by pH‐potentiometric method using a Metrohm 785 DMP Titrino automatic titrator using a Metrohm 6.00234.100 combined glass electrode. The titrations were carried out in the pH range 1.75–11.80 and the pH electrode was calibrated by a two‐point calibration routine with the use of 0.05 M KH‐phthalate (pH = 4.005) and 0.01 M borax (pH = 9.177 buffers. The samples were stirred at 25 °C (±0.1 °C) and N2 gas bubbled into the system to ensure inert conditions and to eliminate the effect of the presence of CO2. For the calculation of [H^+] from the measured pH values, the method proposed by Irving et al. was applied.^[ [61] ^] For this, a 0.01 M HCl solution was titrated with the standardized NaOH solution in the presence of 0.15 M NaCl ionic strength at 25 °C. The differences between the measured (pHread) and calculated pH (‐log[H^+]) values were used to obtain the equilibrium H^+ concentration from the pHmeas values during the titrations. By fitting the resulting titration curves (pH – V (NaOH) data pairs) with the PSEQUAD program, the protonation constants of the ligands were determined.^[ [47] ^] The titration of the [Sc(PC2AM^nBu)]^+ with NaOH was performed with the same method by applying very similar conditions.

[3] = test system: B16‐F10 tumor‐bearing C57BL/6 mice; experiment: In vivo PET studies (MiniPET‐II); details: n = 5
Text: The B16‐F10 mouse melanoma cell line (MC1‐R positive) was the kind gift of the Department of Immunology, Faculty of Medicine, University of Debrecen (Debrecen, Hungary). The cells were routinely cultivated according to the manufacturer's protocols using Dulbecco's Modified Eagle's medium (DMEM, Merck Life Science Ltd., Budapest, Hungary) supplemented with 1% (v/v) MEM Non‐Essential Amino Acid solution (Merck Life Science Ltd.), 1% MEM Vitamins solution (Merck Life Science Ltd.), 10% Fetal Bovine Serum (FBS, GIBCO Life Technologies, Billings, MT, USA), and 1% Antibiotic and Antimicotic solution (Merck Life Science Ltd.) at 37 °C in a humidified atmosphere containing 5% CO2. For tumor induction the cells were used at 85% confluence. Cell viability was determined by applying trypan blue exclusion assay. Those cells were used for subsequent experiments where the staining confirmed that more than 90% of them were viable.
(§1) All animal experiments confirmed to all applicable sections of the Hungarian Laws and the directions and regulations of the European Union, and the in vivo studies have been ethically approved by the Ethics Committee for Animal Experimentation of the University of Debrecen (license number: 16/2020/DEMÁB). C57BL/6 male mice (n = 32, older than 12 weeks, approx. 20 grams) obtained from Charles River Animalab Ltd. (Budapest, Hungary) were used for in vivo PET studies and biodistribution assays. To induce tumor models, 20 mice were subcutaneously transplanted with approximately 3x10^6 tumor cells (in 100 µL physiological saline) at the left shoulder area. Tumor growth was regularly monitored by using caliper measurements. During tumor generation inhalation anesthesia was induced using 3% isoflurane (Forane, AbbVie, Chicago, IL, USA), 0.4 L/min O2, and 0.8 L/min N2O.
Preclinical PET studies were performed on the MiniPET‐II scanner of the Department of Nuclear Medicine and Translational Imaging, Institute of Medical Imaging, Faculty of Medicine, University of Debrecen (Debrecen, Hungary). Fourteen days post tumor induction, tumor‐bearing mice (n = 20) were anesthetized (see above) and tail vein injected with approximately 5–7 MBq of [^44Sc][Sc(PC2AM‐NI)]^+ or [^44Sc][Sc(PC2A‐Ph‐NI)]^+. After a 90 ‐ and a 240‐minutes awake incubation period, the mice were re‐anesthetized and 20‐minutes static PET scans were taken. To quantify radiopharmaceutical uptake, followed by image reconstruction (3D ordered‐subsets expectation‐maximization algorithm (3D‐OSEM)), volumes of interest (VOIs) were manually outlined on the tumors and on the hindlimb muscle tissue as a reference region. Using a dedicated imaging analysis software: BrainCAD image analysis software (version: 1.12‐bulid3), mean standardized uptake values (SUVmean) were determined with the following equation: SUV = [VOI activity (Bq/mL)]/[injected activity (Bq)/animal weight (g)]. To assess image contrast, tumor‐to‐off‐target ratios (tumor‐to‐muscle ratio/T/M) were also calculated.

[4] = test system: healthy control and B16‐F10 melanoma cell‐bearing mice; experiment: Ex vivo biodistribution studies; assay type: in vivo; details: for B16‐F10 tumor uptake: 14 days after cancer cell inoculation, n = 5 tumor‐bearing mice
Text: as §1
To evaluate the organ distribution of the novel ^44Sc‐labeled radiotracers, ex vivo biodistribution experiments were additionally performed. Healthy control and tumor‐bearing mice were administered with approximately 5–7 MBq of [^44Sc][Sc(PC2AM‐NI)]^+ or [^44Sc][Sc(PC2A‐Ph‐NI)]^+ and at 90 ‐ and 240‐minutes post injection, all of them were put to death. Organs and tissues of interest were collected, weighed wet, and γ‐counted (Perkin‐Elmer Packard 406 Cobra, Waltham, MA, USA). After decay correction, the radioactivity of each tissue and organ was calculated as %ID/g.

In the case of O=C(O)CN1CCNCCN(CC(=O)O)Cc2cccc(n2)C1 [3,9‐PC2A], the “log K 1 ^H” value [1] is given as 12.25, the “log K 2 ^H” value [1] is given as 5.97 and the “log K 3 ^H” value [1] is given as 3.47. For the same compound, the “log K 4 ^H” value [1] was 1.99 and the “log β 2 ^H” value [1] was 18.22.

For O=C(O)CN1CCN(CC(=O)NCCCCCCn2ccnc2[N+](=O)[O-])CCN(CC(=O)O)Cc2cccc(n2)C1 [PC2AM‐NI], the “log K 1 ^H” value [2] was 8.60(3), the “log K 2 ^H” value [2] was 7.39(3) and the “log K 3 ^H” value [2] was 2.28(3). The “log K 4 ^H” value [2] was 1.58(3) and the “log β 2 ^H” value [2] was 15.99.

In the case of O=C([O-])CN1CCN(CC(=O)NCCCCCCn2ccnc2[N+](=O)[O-])CCN(CC(=O)[O-])Cc2cccc(n2)C1.[44Sc+3] [[^44Sc][Sc(PC2AM‐NI)]^+], the “B16‐F10 SUVmean” value ([3]; 90 minutes post injection) is reported as 0.08 ± 0.02, the “T/M ratio (tumor‐to‐muscle)” value ([3]; 90 minutes post injection) is reported as 4.04 ± 0.02 and the “muscle SUVmean” value ([3]; 90 minutes post injection) is reported as 0.02 ± 0.01. The “B16‐F10 SUVmean” value ([3]; 240 minutes post injection) was 0.04 ± 0.02, the “T/M ratio (tumor‐to‐muscle)” value ([3]; 240 minutes post injection) was 4.02 ± 0.02 and the “muscle SUVmean” value ([3]; 240 minutes post injection) was 0.01 ± 0.01. The Blood uptake ([4]; 90 minutes post injection) was 0.09 ± 0.02 %ID/g, the Bone uptake ([4]; 90 minutes post injection) was 0.02 ± 0.00 %ID/g and the Brain uptake ([4]; 90 minutes post injection) was 0.01 ± 0.01 %ID/g. It also gave a Fat uptake ([4]; 90 minutes post injection) of 0.05 ± 0.02 %ID/g, a Heart uptake ([4]; 90 minutes post injection) of 0.04 ± 0.01 %ID/g and a Kidney uptake ([4]; 90 minutes post injection) of 0.83 ± 0.29 %ID/g. It also gave a Liver uptake ([4]; 90 minutes post injection) of 1.55 ± 1.66 %ID/g, a Lung uptake ([4]; 90 minutes post injection) of 0.10 ± 0.02 %ID/g and a Muscle uptake ([4]; 90 minutes post injection) of 0.02 ± 0.00 %ID/g. The Pancreas uptake ([4]; 90 minutes post injection) was 0.04 ± 0.02 %ID/g, the Spleen uptake ([4]; 90 minutes post injection) was 0.07 ± 0.02 %ID/g and the Stomach uptake ([4]; 90 minutes post injection) was 0.09 ± 0.02 %ID/g. The Urine activity ([4]; 90 minutes post injection) was 77.19 ± 37.26 %ID/g, the gall bladder uptake ([4]; 90 minutes post injection) was 42.46 ± 33.31 %ID/g and the large intestines uptake ([4]; 90 minutes post injection) was 0.10 ± 0.07 %ID/g. The salivary gland uptake ([4]; 90 minutes post injection) was 0.03 ± 0.00 %ID/g, the small intestines uptake ([4]; 90 minutes post injection) was 0.92 ± 0.33 %ID/g and the “B16‐F10 tumor uptake” value ([4]; 90 minutes post injection) was 0.27 ± 0.07 %ID/g. The Blood uptake ([4]; 240 minutes post injection) was 0.02 ± 0.01 %ID/g, the Bone uptake ([4]; 240 minutes post injection) was 0.01 ± 0.00 %ID/g and the Brain uptake ([4]; 240 minutes post injection) was 0.01 ± 0.00 %ID/g. For the same compound, the Fat uptake ([4]; 240 minutes post injection) was 0.01 ± 0.00 %ID/g, the Heart uptake ([4]; 240 minutes post injection) was 0.01 ± 0.00 %ID/g and the Kidney uptake ([4]; 240 minutes post injection) was 0.60 ± 0.37 %ID/g. For the same compound, the Liver uptake ([4]; 240 minutes post injection) was 0.90 ± 1.01 %ID/g, the Lung uptake ([4]; 240 minutes post injection) was 0.03 ± 0.01 %ID/g and the Pancreas uptake ([4]; 240 minutes post injection) was 0.01 ± 0.00 %ID/g. The Spleen uptake ([4]; 240 minutes post injection) was 0.03 ± 0.02 %ID/g, the Stomach uptake ([4]; 240 minutes post injection) was 0.04 ± 0.03 %ID/g and the Urine activity ([4]; 240 minutes post injection) was 5.44 ± 1.23 %ID/g. For the same compound, the gall bladder uptake ([4]; 240 minutes post injection) was 15.82 ± 13.89 %ID/g, the large intestines uptake ([4]; 240 minutes post injection) was 0.12 ± 0.12 %ID/g and the salivary gland uptake ([4]; 240 minutes post injection) was 0.01 ± 0.01 %ID/g. The small intestines uptake ([4]; 240 minutes post injection) was 0.20 ± 0.10 %ID/g and the “B16‐F10 tumor uptake” value ([4]; 240 minutes post injection) was 0.17 ± 0.07 %ID/g.
